Patent US10806711B2 (priority 2011, dated 2020)
“Also recorded” adds a separate entry of the source.

How the values were obtained:
HL-1 cells = assay type: cell-based
Experimental: Cell Viability Assays—Cell viability was assessed using the ApoTox-Glo Triplex Assay (Promega, Madison, Wis.) per manufacturer's instructions. Briefly, HL-1 cells were seeded in 96 well plates at a density of 1×10^4 cells/well and allowed to grow overnight in Claycomb media supplemented with 10% FBS, 100 U/ml penicillin/streptomycin, and 2 mM L-glutamine. […] GF-AFC viability was then added to ApoTox-Glo Assay Buffer at a ratio of 10 μl GF-AFC to 2.0 ml Assay Buffer and 20 μl of this mixture was added to each well and cells were incubated at 37° C. for 30 minutes. Fluorescence was measured at 400 nm (ex)/505 nm (em) and the data was normalized to untreated control cells.

[1] = tested on: isolated ventricular myocytes; assay: Myocyte contractility measurement; assay type: cell-based, mouse; settings: ruthenium red pretreatment, 10^−7 M probenecid
Experimental: Isolation of ventricular myocytes—Hearts from WT mice (12-week old) were perfused on the Langendorff system with a modified Krebs-Henseleit buffer (KHB) composed of (mM) NaCl 118, KCl 5.4, HEPES 10, NaH2PO4 0.33, MgCl2 2, glucose 10, taurine 30, butanedione monoxime 10 (pH=7.4). Then an enzyme solution (KHB containing 0.7 mg/ml type II collagenase, 0.1% BSA and 25 μM CaCl2) was used to digest the hearts for 10 min. Finally, ventricles of the hearts were excised, minced and filtered to obtain isolated cells. After sufficient sedimentation, the supernatant was removed and the cells were resuspended. Myocyte contractility measurement—Myocytes were put on a plexiglass chamber containing a Tyrode's solution composed of (mM) NaCl 140, KCl, 5.4, MgCl2 1, CaCl2 1.8, HEPES 5, glucose 10 (pH=7.4). Myocytes were excited under 0.5 Hz field stimulation. After reaching the steady state, myocyte shortening and the rates of shortening (+dL/dt) and relengthening (−dL/dt) were imaged with a CCD camera and monitored by a video-edge detector. Drugs were dissolved in Tyrode's solution and perfused into the chamber. Data were continuously collected through the PCLAMP 9 software. Water soluble probenecid was used for all of the myocyte experiments.

[2] = tested on: isolated ventricular myocytes; assay: Myocyte Ca2+ transient and cytosolic Ca2+ measurement; assay type: cell-based, mouse
Experimental: Isolation of ventricular myocytes—Hearts from WT mice (12-week old) were perfused on the Langendorff system with a modified Krebs-Henseleit buffer (KHB) composed of (mM) NaCl 118, KCl 5.4, HEPES 10, NaH2PO4 0.33, MgCl2 2, glucose 10, taurine 30, butanedione monoxime 10 (pH=7.4). Then an enzyme solution (KHB containing 0.7 mg/ml type II collagenase, 0.1% BSA and 25 μM CaCl2) was used to digest the hearts for 10 min. Finally, ventricles of the hearts were excised, minced and filtered to obtain isolated cells. After sufficient sedimentation, the supernatant was removed and the cells were resuspended.
Myocyte Ca^2+ transient and cytosolic Ca^2+ measurement—Myocytes were loaded with Fluo-4 acetoxymethyl ester (7 μM) for 20 min at room temperature, followed by a 10 min wash with Tyrode's solution, and then placed onto a plexiglass chamber for recording. For Ca^2+ transient measurements, myocytes were excited under 0.5 Hz and 3 Hz field stimulation, and the fluorescence signals were obtained using a Nikon TE 2000 microscope and collected through an InCyt Standard photometry system. For cytosolic Ca^2+ analysis in quiescent myocytes, a Zeiss LSM 510 confocal microscope was used to record fluorescent images from resting myocytes. Line-scan mode was applied at 3.07 ms intervals with 512 pixels spaced at 0.056 μm. Drugs were dissolved in Tyrode's solution and perfused into the chamber. Images of myocytes were recorded every 30 s after drug application. Data analysis was performed using Clampfit 9.2 and Image J 1.44 software.
Water soluble probenecid was used for all of the myocyte experiments.

CC(C)NCC(O)c1ccc(O)c(O)c1 (stereo not shown) [isoproterenol]
cell death at 24 hours, compared with H2O2 positive control (HL-1 cells; 1.0 mM, 24 hours): substantial cell death; also recorded: indistinguishable from H2O2 positive controls | cells still viable (HL-1 cells; 1.0 mM, 24 hours): less than 20% | cell death (HL-1 cells; 1.0 mM, after 4 and 8 hours of treatment): significant amount of cell death | cell death in HL-1 cells (Example 3 summary) (HL-1 cells; probenecid at supraphysiological, isoproterenol at clinically relevant concentrations): increased cell death

N.N.N.N.N.N.N.N.N.N.N.N.N.N.[Cl-].[Cl-].[Cl-].[Cl-].[Cl-].[Cl-].[O-2].[O-2].[Ru+3].[Ru+3].[Ru+4] [ruthenium red]
effect of pretreatment on probenecid's effect on myocyte contractility [1]: completely abolished | effect on the increase of cytosolic Ca2+ by probenecid ([2]; ruthenium red 1 μM applied, 0.1 μM probenecid): fully blocked

C/C=C(/C)C(=O)O[C@H]1C(C)=C2[C@H]([C@@H]1OC(=O)CCCCCCC)[C@@](C)(OC(C)=O)C[C@H](OC(=O)CCC)[C@@]1(O)[C@H]2OC(=O)[C@@]1(C)O [thapsigargin]
effect on the change in cytosolic Ca2+ by probenecid ([2]; thapsigargin 10^−6 M pretreatment 15 minutes, 10^−7 M probenecid): abolished
